The subject of assay [1] is MOG-induced CREAE in SJL Mice. In words: MOG-induced CREAE in SJL mice, molecular species comparison of GLA. Type of assay: in vivo. The settings on record: for Mean Clinical Score / No. with EAE: 100 μl of test lipid. The source says: γ-Linolenic acid (18:3n -6, GLA) is known to be rapidly converted to longer-chain omega-6 polyunsaturated fatty acids dihomo-γ-linolenic acid and arachidonic acid in vivo (Phylactos et al 1994, Harbige et al 1995, 2000). Therefore to increase the level of membrane long chain omega-6 fatty acids in MS the inventors have reviewed results obtained with several GLA-containing oils:- both fungal (from Mucor javanicus) and plant (Borago officianalis), Evening primrose Oenothera spp. or Blackcurrant Ribes spp) as well as a synthetic tri-GLA oil as GLA delivery systems in an in vivo experimental animal model of MS known as chronic relapsing experimental autoimmune encephalomyelitis (CREAE).
Experimental autoimmune encephalomyelitis (EAE) is an autoimmune inflammatory disease of the CNS, with or without demyelination, inducible in rodents and other mammalian species. […] Chronic relapsing and demyelinating EAE models (CREAE), which are characterised by demyelination and relapse phases, are therefore currently the animal models of choice for MS research (Fazakerley 1997).

For assay [2], the system named is EAE. The settings on record: guinea-pig (Meade et al 1978); cited from earlier work.
For assay [3], the system named is multiple sclerosis patients. As to conditions: about 20 g/day; cited from earlier work.
The test system of assay [4] is EAE. As to conditions: depending on dose (Harbige et al); cited from earlier work.

Each structure is given as a SMILES string. Entries after “also recorded” stand apart in the source; their conditions may differ. Marks after values point to notes of the source that are not given here.

Turning to `CCCCC/C=C\C/C=C\C/C=C\CCCCC(=O)OCC` [EE-GLA, Ethyl-Ester-GLA], in assay [1], the “Mean Clinical Score” value is given as 3.0 ± 0.8 and the “No. with EAE” value is on record as 5/6.
Regarding `CCCCC/C=C\C/C=C\C/C=C\CCCCC(=O)OCC(COC(=O)CCCC/C=C\C/C=C\C/C=C\CCCCC)OC(=O)CCCC/C=C\C/C=C\C/C=C\CCCCC` [TG-GLA, Triacylglycerol-GLA], in assay [1], the “Mean Clinical Score” value was 1.0 ± 1.3^c and the “No. with EAE” value was 3/6. The “Protective effect in CREAE (in words)” value in assay [1] (compared with borage oil) was “protective effects similar to that of the borage oil; also recorded: effective at a lower dose level than the borage oil”.
Turning to `CCCCC/C=C\C/C=C\CCCCCCCC(=O)O` [linoleic acid], in assay [2], the “Incidence and severity of EAE” value was “partially suppresses the incidence and severity of EAE”. Moreover, the “Duration and severity of relapses of multiple sclerosis” value in assay [3] is “relapses were less frequent, less severe and of shorter duration than controls”. The “Protection in acute rat EAE” value in assay [4] is on record as “dose-dependent action on the clinical severity but did not abolish it”.
Consider `CCCCC/C=C\C/C=C\C/C=C\CCCCC(=O)O` [γ-linolenic acid], for which the “Protection in acute rat EAE” value in assay [4] was “fully protective”.
